Measurements published in patent US20090197279A1, “MICROTUBULE SYNTHESIS AS A BIOMARKER” (KINEMED, INC., priority 2005, published 2009).
“Also recorded” adds a separate entry of the source.

Tests used:
[1] = tested on: primary rat neurons; test: Microtubule dynamics in glutamate-stimulated cultures of primary rat neurons; assay type: cell-based; settings: parallel experiments, data not shown
Procedure: Rat brain hippocampus neuronal cells were obtained from Cambrex Bio Science (Walkersville, Md.). The neurons were grown in Neurobasal medium supplemented with 2 mM Glutamine, 100 U/ml penicillin/streptomycin- and 2% B27 in a humidified atmosphere of 10% CO2 at 37° C. for 14 days on a poly-D-lysine and laminin coated 10 cm^2 tissue culture dish.
During experimental manipulation of neural connectivity, the dynamic responses of dendritic microtubules to various stimuli are likely to differ from those of axonal shafts or of the cell body. In order to detect such differential responses by use of the invention disclosed herein, we cultured primary neurons from rat brain hippocampi and labeled newly synthesized tubulin by adding 5% ^2H2O in culture media for 24 hours. After separation of tubulin dimers and polymers in cytosolic extracts, we captured axonal growth cone and dendritic microtubules by sequential binding to immunoaffinity columns reactive with tau and MAP2, respectively, leaving only somatic and axonal shaft microtubules in the unbound fraction (FIG. 5A). Tubulin was purified further from each fraction, and label incorporation into Ala was measured by GC/MS (FIG. 5B). […] Free Ala in culture media was >80% equilibrated with ^2H2O (not shown). […]

[2] = tested on: hippocampal tubulin dimers and microtubule subsets; test: 2H label incorporation into hippocampal tubulin dimers and microtubule subsets during CFC (GC/MS); assay type: in vivo, mouse; settings: conditioned mice, hippocampus
Description: FIG. 10 depicts microtubule/tubulin exchange during hippocampus-dependent contextual memory. (A) Protocol for measurement of microtubule/tubulin exchange during contextual fear conditioning (CFC). Tubulin dimers and microtubules subsets were labeled to plateau through continuous ^2H2O labeling, starting one day before CFC training. Labeling was continued throughout CFC training (Day 2) and the contextual conditioning test until mice were euthanized (Day 3). Vehicle or nocodazole treated-mice were injected 4 hours before CFC training, consisting of three pairings of conditioned and unconditioned stimuli inside an observation chamber, as described in Example 7 below. (B) CFC experiments were conducted in groups of naïve, vehicle- (50% cyclodextrin) and nocodazole-treated (0.2 mg/kg) mice (mean±SD, n=8 per each group), respectively. […] (C-E) ^2H label incorporation into hippocampal tubulin dimers and microtubule subsets was compared at sacrifice in the indicated experimental groups. Microtubule subpopulations were fractionated as described below, and the percentage of newly synthesized tubulin was quantified by GC/MS (mean±SD, n=3). (C) and (D) In vehicle-CFC trained mice, the increased freezing response corresponded with an increase in ^2H labeling of MAP2- and CS-associated MTs, compared to naïve control animals (§p<0.01 and §§p<0.05; two-way ANOVA). […] In (C-E), bars represent % new tubulin (mean±SD, n=3).
Tubulin was purified using minor modifications of protocols described previously (Fanara, P., Oback, B., Ashman, K., Podtelejnikov, A., Brandt, R. Identification of MINUS, a small polypeptide that functions as a microtubule nucleation suppressor. EMBO J. 18, 565-577 (1999); Fanara, P. et al. In vivo measurement of microtubule dynamics using stable isotope labeling with heavy water. Effect of taxanes. J. Biol. Chem. 279, 49940-49947 (2004). Briefly, cultured neurons were gently scraped off culture plates, washed in phosphate-buffered saline (PBS), and homogenized in microtubule-stabilizing buffer. For purification ex vivo, mice were anesthetized with isoflurane and euthanized by cervical dislocation. Brains were rapidly removed and washed in microtubule-stabilizing buffer (MSB); hippocampi were dissected and gently homogenized in MSB. […] The relative abundance of tubulin in each preparation (Tubulin dimers and TAU5-bound, MAP2-bound, and unbound microtubule fractions) was quantified by Western blot, and tubulin from these fractions was further purified by ion exchange and size exclusion chromatography, as previously described (Fanara, P. et al. In vivo measurement of microtubule dynamics using stable isotope labeling with heavy water. Effect of taxanes. J. Biol. Chem. 279, 49940-49947 (2004)). […]

SMILES	microtubule label incorporation pattern compared with in vivo [1]	label incorporation into tau-associated microtubules ([2]; nocodazole 0.2 mg/kg vs basal levels in naïve and conditioned animals)	2H incorporation into free tubulin dimers ([2]; nocodazole 0.2 mg/kg vs vehicle-treated controls)	label incorporation into MAP2-associated microtubules ([2]; nocodazole 0.2 mg/kg vs vehicle)	reduction of label incorporation into CS microtubules ([2]; nocodazole 0.2 mg/kg)
N[C@@H](CCC(=O)[O-])C(=O)[O-].[K+].[K+] [glutamate, potassium L-glutamate]	identical results	–	–	–	–
COC(=O)Nc1nc2ccc(C(=O)c3cccs3)cc2[nH]1 [nocodazole]	–	reduced; also recorded: significant disassembly	increase	reversed; also recorded: significant disassembly	not statistically significant
